Experimental data: patent publication US20190070170A1, “METHOD OF S[…]-1” (Macau University of Science and Technology, priority 2017, published 2019)

Legend:
CREB = CREB pathway (p-CREB) in LPS-stimulated rat peritoneal macrophages (western blotting); type: cell-based; details: SIN 1 h, LPS 1 μg/ml 15 min or 1 h
Experimental: (§1) Sprague-Dawley (SD) rats from the University of Hong Kong were housed in cages with free access to food and water. Peritoneal macrophages of SD rats were isolated as described in Liu J. et al., Pharmacological research 2016, 111:303-315. Briefly, untreated rats were sacrificed and after laparotomy, about 50 ml cold sterile Hank's balanced salt solution (HBSS) was used to lavage the peritoneal cavity at twice, and then the peritoneal lavage fluid was collected and centrifuged at 1500 rpm for 10 min. The cell pellets was suspended at a density 1.5×10^6 cells/ml in pre-hearted DMEM medium with 10% heat-inactivated FBS, penicillin G (100 units/ml), streptomycin ([…]), and L-glutamine (2 mM), followed by seeding in 6-well plates at a density of 4.5×10^6 cells and incubation for 2 h. Then the medium were discarded to remove the non-adherent cells. The adherent cells were further washed for two times with pre-heated DMEM medium to remove floating cells. Next, cells were pre-treated with various concentration of SIN for 1 h, followed by stimulation with LPS (1 μg/ml).
(§2) Whole-cell and nuclear proteins were obtained using RIPA lysis buffer (CST, Boston, Mass., USA) and Nuclear and Cytoplasmic Extraction Reagents kit from Thermo Scientific (Asheville, N.C., USA), respectively. […] The levels of protein expression were measured using Odyssey v3.0 software from Li-COR (Lincoln, Nebr., USA).

iNOS = iNOS protein level in LPS-stimulated rat peritoneal macrophages (immunoblotting); type: cell-based; details: pretreatment 1 h, LPS 1 μg/ml 24 h
Experimental: as §1, §2

## COC1=C[C@@H]2[C@@H]3Cc4ccc(OC)c(O)c4[C@]2(CCN3C)CC1=O [SIN, sinomenine]
CREB
  influence on CREB pathway: No observable effects
iNOS
  iNOS expression: significantly inhibited
